“Also recorded” adds a separate entry of the source.
How the values were obtained:
PC12 cells [1] = assay: Reversal of TS-induced neuroprotection by PI-3 kinase inhibitors in PC12 cells; assay type: cell-based, rat; design: neuronal viability relative to TS-F without wortmannin / neuronal viability relative to TS-F+CNTF without wortmannin: dose or concentration left out as unconfirmed
Method: (§1) Protection against apoptosis of PC12 cells in serum-free medium containing a test agent (agent N)(e.g., protection induced by TS, TS fragments, NGF or other growth factors), was calculated by the formula: 100%-[(apoptosis(%) of cells kept in RPMI containing test agent N÷apoptosis (%) of cells kept in RPMI)×100%]. Testing the effect of wortmannin (Sigma) and LY294002 (Sigma) in inhibiting the neuroprotection of TS was performed following the protocol described by others (Yao and Cooper, Science, 267:2003-2006 (1995); D'Mello et al., J. Neurosci 17:1548-1560 (1997)). In brief, PC12 cells were switched from growth medium to RPMI without and with TS or various other growth factors. After 24 hr, wortmannin and LY294002 were added to the cultures. After another 24 hrs, cells were examined for apoptosis by the DAPI assay, as above.

[2] = tested on: peripheral blood mononuclear cells (PBMC); assay: IL-6 secretion by PBMC (ELISA); assay type: cell-based, human; design: IL-6 secretion by PBMC: dose or concentration left out as unconfirmed; conditions: 24 hrs culture
Method: (§2) Primary cultures of human intestinal microvascular endothelial cells (HIMEC) isolated from normal jejunal mucosa/submucosal tissue were prepared as described (Strong et al., Gastroenterology 114: 1244-1256 (1998)). The HIMEC were cultured in fibronectin-coated plasticware in MCDB medium (Sigma) supplemented with 20% FBS, 90 μg/ml heparin and 50 μg/ml endothelial cell growth factor (Sigma). T-24 cells (ATCC Accession No. HTB-4) were cultured in M199 medium supplemented with 10% FBS. PBMC were purified by Ficoll-Paque gradient as described (Current Protocols in Immunology, pp 7.1.1-7.1.2). Vero cells (ATCC Accession No. CCL-81) were grown in RPMI medium with 5% Nu serum and infected with the Silvio X-10/4 of T. cruzi as described previously (Chuenkova et al., J. Exp. Med. 181: 1693-1703, (1995)).
Endothelial cells and T-24 cells were plated on 24-well plates at a density of 1×10^3 cells/well, while peripheral blood mononuclear cells (PBMC) were plated in the similar wells at 1×10^6/well. Triplicat cultures of cells were incubated test agents for a predetermined amount of time. […] Cytokines and chemokines released in the culture supernatants were measured by ELISA assay following the instructions of the manufacturer (Endogen). The cytokines tested were IL-1β, IL-4, IL-8, IL-10, IL-12, IFN-γ, TNF-α, and the chemokines RANTES and MCP-1. Negative controls were cells incubated in medium containing polymixin B at 10 μg/ml, and positive controls were cells incubated with bacterial LPS at the low ng/ml range (for PBMC or HIMEC) or in the μg/ml range for carcinoma T-24 cells. In some experiments, IL-1β, or TNFα were used as positive control for cytokine release.
TR peptides (Table 2) were synthesized at the Tufts Synthesis Facility (Boston, Mass.). Each peptide was purified by HPLC, and the number of amino acids and molecular weight of each peptide verified by mass spectrometry. Peptides were dissolved in growth medium (10% FCS in RPMI) and added at various concentrations to 1×10^6 PBMC/well in 24-well plates. After 24 hrs, IL-6 was assayed by ELISA in the conditioned supernatants.

human Schwann cells = assay: Serum withdrawal-induced apoptosis of immortalized human Schwann cells (DAPI); assay type: cell-based; conditions: for inhibition of apoptosis of Schwann cells by peptides: further studies
PC12 cells [3] = assay: Neurite outgrowth assay in PC12 cells; assay type: cell-based, rat
Text: (§3) PC12 cells were obtained from ATCC (Manassas, Va. (Accession No. CRL-1721)) and cultured on collagen-coated dishes in RPMI 1640 supplemented with 10% horse serum and 5% fetal bovine serum (Greene, L. A. and Tishler, A. S., Proc. Natl. Acad. Sci. USA, 73: 2424-2428 (1976)). For differentiation and survival experiments, cells were washed three times in serum-free RPMI/0.2% BSA, plated in the same medium in collagen-coated plastic dishes at 2×10^5/ml, without and with growth factors, TS, recombinant proteins, synthetic peptides, for the time and concentrations indicated in the Figures.
96-well microtiter plates were coated overnight at 4° C. with the TS or peptides or fragments thereof, or with control proteins laminin (Ln) or bovine serum albumin (BSA) at 500 μg/ml. After removing the compounds, the plates were further incubated with 1% BSA for 1 hour at room temperature and immediately used as substratum for PC12 or N18 (Prasad, K. N., Biol Rev Camb Philos Soc, 66:431-451 (1991)) cells in serum-free RPMI/0.2% BSA. Neurite outgrowth was measured using a phase-contrast microscope 17 hours later.

PC12 cells [4] = assay: Trophic factor withdrawal-induced apoptosis of PC12 cells (DAPI/TUNEL); assay type: cell-based, rat; conditions: for inhibition of apoptosis of PC12 cells by peptides: further studies; for protection of PC12 cells from apoptosis induced by trophic factor withdrawal: 17 hours
Text: as §3
Cell staining with 4,6-diamino-2-phenylindole (DAPI). Cells were fixed with 4% formaldehyde in PBS for 5 minutes, washed with PBS, stained with 10 μg/ml DAPI (Sigma) for 2 minutes, washed with PBS, and visualized under UV light using a fluorescent microscope. About 300-400 cells were examined under the microscope to determine the percentage of apoptotic cells.
Cell DNA nick end labeling (TUNEL) (Gavrieli, Y., et al., J. Cell. Biol. 119: 493-501 (1992)) assay was performed using a kit purchased from Boehringer Mannheim as described by the manufacturer.
as §1

normal human neutrophils = assay: IL-6 production by normal human neutrophils; assay type: cell-based
[5] = tested on: human intestinal microvascular endothelial cells (HIMEC); assay: IL-6 secretion by HIMEC (ELISA); assay type: cell-based; conditions: 24 hrs culture
Method: as §2
Endothelial cells and T-24 cells were plated on 24-well plates at a density of 1×10^3 cells/well, while peripheral blood mononuclear cells (PBMC) were plated in the similar wells at 1×10^6/well. Triplicat cultures of cells were incubated test agents for a predetermined amount of time. […] Cytokines and chemokines released in the culture supernatants were measured by ELISA assay following the instructions of the manufacturer (Endogen). The cytokines tested were IL-1β, IL-4, IL-8, IL-10, IL-12, IFN-γ, TNF-α, and the chemokines RANTES and MCP-1. […]

N18 cells = assay: Neurite outgrowth assay in N18 cells; assay type: cell-based; conditions: immobilized proteins coated at 500 μg/ml, 17 hours (FIG. 3A)
Method: FIG. 3A is a graph showing that neurite outgrowth in N18 cells is induced by immobilized laminin (Ln), immobilized TS and immobilized fragments of TS. Proteins were immobilized by incubating plates which contained wells filled with solutions of the proteins (protein concentration was 500 μg/ml) at 4° C. overnight. The protein solutions were removed and the plates were further incubated with 1% BSA at room temperature for one hour. N18 cells were cultured in the coated wells in serum-free RPMI-1640/0.2% BSA for 17 hours, and neurite outgrowth was measured by phase-contrast microscopy. […] Ln, laminin; TS, purified T. cruzi trans-sialidase; 7F, recombinant TS from clone 7F; 19Y, recombinant TS from clone 19Y; TS-F, recombinant fragment consisting of amino acid residues 33-666 of TS (SEQ ID NO:2); TS-CC-47, recombinant fragment consisting of amino acid residues 79-478 of TS (SEQ ID NO:2); TS-Cat-47, recombinant fragment consisting of amino acid residues 79-415 of TS (SEQ ID NO:2); BSA, bovine serum albumin.
96-well microtiter plates were coated overnight at 4° C. with the TS or peptides or fragments thereof, or with control proteins laminin (Ln) or bovine serum albumin (BSA) at 500 μg/ml. […] Neurite outgrowth was measured using a phase-contrast microscope 17 hours later.

[6] = tested on: primary cultures of rat Schwann cells; conditions: reported (Weiner and Chun 1999); cited from earlier work
[7] = neurite outgrowth assay, concentration not given
[8] = synthetic peptides 1 μM, DAPI (FIG. 6B)

Compound	inhibition of apoptosis of Schwann cells by peptides (human Schwann cells)	neurite outgrowth in PC12 cells (PC12 cells [3]; [7])	inhibition of apoptosis of PC12 cells by peptides (PC12 cells [4])	apoptosis suppressing effect of peptide in presence of PI-3 kinase inhibitor LY294002, Schwann cells (human Schwann cells)	apoptosis suppressing effect of peptide in presence of PI-3 kinase inhibitor LY294002, PC12 cells (PC12 cells [4])	further results
COC[C@H]1OC(=O)c2coc3c2[C@@]1(C)C1=C(C3=O)[C@@H]2CCC(=O)[C@@]2(C)C[C@H]1OC(C)=O [wortmannin]	–	–	–	–	–	neuronal viability relative to TS-F without wortmannin (PC12 cells [1]; wortmannin with TS-F): 57±2%; neuronal viability relative to TS-F+CNTF without wortmannin (PC12 cells [1]; wortmannin with TS-F+CNTF): 80±3%
DSSAHGAPSTPA [peptide TR1]	–	–	–	–	–	IL-6 secretion by PBMC [2]: less active
DSSAHGAPSTPADSSAHGTPSTPV [TR2]	–	–	–	–	–	IL-6 secretion by PBMC [2]: less active
DSSAHGAPSTPADSSAHGTPSTPVDSSAHGTPSTPA [TR3]	–	–	–	–	–	IL-6 secretion by PBMC [2]: less active
DSSAHGAPSTPADSSAHGTPSTPVDSSAHGTPSTPADSSAHSTPSTPA [TR4]	–	–	–	–	–	IL-6 secretion by PBMC [2]: active in promoting IL-6 release
DSSAHGAPSTPADSSAHGTPSTPVDSSAHGTPSTPADSSAHSTPSTPADSSAHSTPSTPA [TR5]	–	–	–	–	–	IL-6 secretion by PBMC [2]: active in promoting IL-6 release
DSSAHGTPSTPA [peptide TR, control peptide derived from the tandem repeat]	did not inhibit apoptosis	did not induce neurite outgrowth; also recorded: did not promote neurite outgrowth	did not inhibit apoptosis	–	–	–
GNASQNVWEDAYRCVNASTAN [C19Y21]	potent suppressors of apoptosis	–	potent suppressors of apoptosis	inhibited	inhibited	–
GNASQNYWEDAYRC [CYN2]	suppressed apoptosis but was less active	–	suppressed apoptosis but was less active	inhibited	inhibited	–
QPLRRQRVVVVPLSPRLVLLAFCRQRLPLKRMGGSYRCVNASTAN [peptide C44]	potent suppressors of apoptosis	had direct neurotrophic activity; also recorded: induce dose dependent outgrowth of neurites	potent suppressors of apoptosis	inhibited	inhibited	protection of PC12 cells from apoptosis induced by trophic factor withdrawal (PC12 cells [4]; [8]): protected PC12 cells from apoptosis
RQRLPKRMGGSYRC [peptide C14]	potent suppressors of apoptosis	had direct neurotrophic activity; also recorded: induce dose dependent outgrowth of neurites	potent suppressors of apoptosis	inhibited	inhibited	protection of PC12 cells from apoptosis induced by trophic factor withdrawal (PC12 cells [4]; [8]): protected PC12 cells from apoptosis
RQRLPKRMGGSYRCVNASTAH [CFN1]	potent suppressors of apoptosis	had direct neurotrophic activity	potent suppressors of apoptosis	inhibited	inhibited	–
TNF-A	–	–	–	–	–	IL-6 production by normal human neutrophils (normal human neutrophils): did elicit secretion of IL-6
VCNA: neuraminidase from Vibrio cholera, Calbiochem [reference compound]	–	did not induce neurite outgrowth	–	–	–	IL-6 secretion by HIMEC [5]: did not stimulate detectable IL-6 secretion; neurite outgrowth in PC12 cells (PC12 cells [3]; soluble in serum-free RPMI-1640/0.2% BSA, collagen coated dishes, 16 hours, NGF 0.1 μg/ml, VCNA 2.4 μg/ml, TS 1 μg/ml): does not induce neurite outgrowth; protection of PC12 cells from apoptosis induced by trophic factor withdrawal (PC12 cells [4]; serum-free RPMI-1640/0.2% BSA, DAPI or TUNEL): did not
VNASTAN [CYFN]	did not inhibit apoptosis	–	did not inhibit apoptosis	inhibited	inhibited	–
YSVDDGETWE [peptide B2, control peptide]	did not inhibit apoptosis	did not induce neurite outgrowth; also recorded: did not promote neurite outgrowth	did not inhibit apoptosis	–	–	–
laminin [reference compound]	–	–	–	–	–	neurite outgrowth in N18 cells (N18 cells): induced
lysophosphatidic acid	–	–	–	–	–	active dose for primary cultures of rat Schwann cells [6]: ≥ 10 nM
